According to paper PMC7044140, “Comparative studies on similarities and differences of cyclodipeptide oxidases for installation of C–C double bonds at the diketopiperazine ring” (Applied Microbiology and Biotechnology, 2020):

Assays:
CDO-Np (CDO-NpA/CDO-NpB) = biological target: T1, CDO-Np (CDO-NpA/CDO-NpB) (Nocardiopsis sp. L17-MgMaSL7, UniProt A0A317LX08+A0A317LXS7); test: LC-MS/HPLC product formation with E. coli crude extract; type: biochemical; conditions: 1 mM substrate, 1 mM phenazine methosulfate, pH 7.5, 40 °C; dehydrogenation
T1 construct: gene BDW27_11054; desalted crude extract
T1 sequence (A0A317LXS7 1-185): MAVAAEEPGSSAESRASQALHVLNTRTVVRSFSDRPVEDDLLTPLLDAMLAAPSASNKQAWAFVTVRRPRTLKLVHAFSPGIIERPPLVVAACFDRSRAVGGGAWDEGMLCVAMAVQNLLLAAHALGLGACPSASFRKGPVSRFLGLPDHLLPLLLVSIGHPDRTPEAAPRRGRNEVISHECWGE
T1 sequence (A0A317LX08 1-105): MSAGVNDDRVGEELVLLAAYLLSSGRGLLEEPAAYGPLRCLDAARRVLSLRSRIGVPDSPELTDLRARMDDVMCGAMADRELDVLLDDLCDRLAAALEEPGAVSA

AlbA/B = biological target: T2, AlbA/B (Streptomyces noursei, UniProt Q8GED8+Q8GED9); test: as above; type: biochemical; conditions: 1 mM substrate, 1 mM phenazine methosulfate, pH 7.5, 40 °C; dehydrogenation
T2 construct: both subunits co-expressed from overlapping genes in pQE-60 (pKB90) in E. coli SG 13009; desalted crude extract; CDOs described as multimers above 2000 kDa, estimated B to A ratio 1:10
T2 sequence (Q8GED9 whole entry): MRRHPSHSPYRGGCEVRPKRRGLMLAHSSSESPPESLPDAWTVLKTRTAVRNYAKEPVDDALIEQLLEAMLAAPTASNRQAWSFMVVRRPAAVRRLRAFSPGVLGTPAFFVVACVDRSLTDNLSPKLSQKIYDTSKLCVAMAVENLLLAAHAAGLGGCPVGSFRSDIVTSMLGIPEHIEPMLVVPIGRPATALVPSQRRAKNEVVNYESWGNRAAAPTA
T2 sequence (Q8GED8 whole entry): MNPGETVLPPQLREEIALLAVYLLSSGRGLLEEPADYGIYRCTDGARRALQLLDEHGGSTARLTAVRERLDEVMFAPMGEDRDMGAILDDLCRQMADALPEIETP

SMILES | LC-MS/HPLC product formation with E. coli crude extract (CDO-Np (CDO-NpA/CDO-NpB)) | LC-MS/HPLC product formation with E. coli crude extract (AlbA/B)
CC(C)C[C@@H]1NC(=O)[C@H](Cc2ccccc2)NC1=O [1a, cyclo-L-Phe-L-Leu] | CDO-Np showed very high activity toward 1a and 2a | 
O=C1N[C@@H](Cc2ccc(O)cc2)C(=O)N[C@H]1Cc1ccccc1 [2a, cyclo-L-Phe-L-Tyr] | In vitro incubation of 2a with CDO-Np led to an almost complete conversion to 2d | The behavior of AlbA/B with 2a was similar to CDO-Np with 3a and 5a
O=C1N[C@@H](Cc2c[nH]c3ccccc23)C(=O)N[C@H]1Cc1ccc(O)cc1 [3a, cyclo-L-Trp-L-Tyr] |  | Only one didehydrogenated product 3b or 5b was detected in the reaction mixtures of AlbA/B
